According to PubChem BioAssay (NCI):
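At the GI50, growth is halved. TGI is the concentration that stops growth completely.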

Key:
Assay in all cases: NCI-60 cell line screen, 384-well format
786-0 renal = tested on: 786-0 renal
A498 renal = tested on: A498 renal
A549 NSCLC = tested on: A549 NSCLC
ACHN renal = tested on: ACHN renal
BT-549 breast = tested on: BT-549 breast
CAKI-1 renal = tested on: CAKI-1 renal
CCRF-CEM leukemia = tested on: CCRF-CEM leukemia
COLO 205 colon = tested on: COLO 205 colon
DU-145 prostate = tested on: DU-145 prostate
EKVX NSCLC = tested on: EKVX NSCLC
HCC-2998 colon = tested on: HCC-2998 colon
HCT-116 colon = tested on: HCT-116 colon
HCT-15 colon = tested on: HCT-15 colon
HOP-62 NSCLC = tested on: HOP-62 NSCLC
HOP-92 NSCLC = tested on: HOP-92 NSCLC
HS 578T breast = tested on: HS 578T breast
HT29 colon = tested on: HT29 colon
IGROV1 ovarian = tested on: IGROV1 ovarian
K-562 leukemia = tested on: K-562 leukemia
KM12 colon = tested on: KM12 colon
LOX IMVI melanoma = tested on: LOX IMVI melanoma
M14 melanoma = tested on: M14 melanoma
MALME-3M melanoma = tested on: MALME-3M melanoma
MCF7 breast = tested on: MCF7 breast
MDA-MB-231 breast = tested on: MDA-MB-231 breast
MDA-MB-435 melanoma = tested on: MDA-MB-435 melanoma
MDA-MB-468 breast = tested on: MDA-MB-468 breast
MOLT-4 leukemia = tested on: MOLT-4 leukemia
NCI-H226 lung = tested on: NCI-H226 lung
NCI-H23 lung = tested on: NCI-H23 lung
NCI-H322M lung = tested on: NCI-H322M lung
NCI-H460 NSCLC = tested on: NCI-H460 NSCLC
NCI-H522 lung = tested on: NCI-H522 lung
NCI/ADR-RES ovarian = tested on: NCI/ADR-RES ovarian
OVCAR-3 ovarian = tested on: OVCAR-3 ovarian
OVCAR-4 ovarian = tested on: OVCAR-4 ovarian
OVCAR-8 ovarian = tested on: OVCAR-8 ovarian
RPMI-8226 leukemia = tested on: RPMI-8226 leukemia
RXF 393 renal = tested on: RXF 393 renal
SF-268 CNS = tested on: SF-268 CNS
SF-295 CNS = tested on: SF-295 CNS
SF-539 CNS = tested on: SF-539 CNS
SK-MEL-28 melanoma = tested on: SK-MEL-28 melanoma
SK-MEL-5 melanoma = tested on: SK-MEL-5 melanoma
SK-OV-3 ovarian = tested on: SK-OV-3 ovarian
SN12C renal = tested on: SN12C renal
SNB-19 CNS = tested on: SNB-19 CNS
SNB-75 CNS = tested on: SNB-75 CNS
SR leukemia = tested on: SR leukemia
SW-620 colon = tested on: SW-620 colon
T-47D breast = tested on: T-47D breast
TK-10 renal = tested on: TK-10 renal
U251 glioblastoma = tested on: U251 glioblastoma
UACC-257 melanoma = tested on: UACC-257 melanoma
UACC-62 melanoma = tested on: UACC-62 melanoma
UO-31 renal = tested on: UO-31 renal

## CCCCS(=O)c1sc2nc(-c3cccs3)cc(-c3ccccc3)c2c1N (configuration not stated)
786-0 renal
  GI50: 27.9 µM
  TGI: > 100 µM
A498 renal
  GI50: 21.2 µM
  TGI: 79.2 µM
A549 NSCLC
  GI50: 12.5 µM
  TGI: > 100 µM
ACHN renal
  GI50: 31.7 µM
  TGI: > 100 µM
BT-549 breast
  GI50: 16.5 µM
  TGI: 45.6 µM
CAKI-1 renal
  GI50: 31.9 µM
  TGI: > 100 µM
CCRF-CEM leukemia
  GI50: 11.4 µM
  TGI: 28.3 µM
COLO 205 colon
  GI50: 34.4 µM
  TGI: > 100 µM
DU-145 prostate
  GI50: 28.7 µM
  TGI: > 100 µM
EKVX NSCLC
  GI50: 27.8 µM
  TGI: > 100 µM
HCC-2998 colon
  GI50: 27.2 µM
  TGI: 63.3 µM
HCT-116 colon
  GI50: 26 µM
  TGI: 91 µM
HCT-15 colon
  GI50: 19.1 µM
  TGI: > 100 µM
HOP-62 NSCLC
  GI50: 29.9 µM
  TGI: 93.8 µM
HOP-92 NSCLC
  GI50: 26.4 µM
  TGI: 99.2 µM
HS 578T breast
  GI50: 14.1 µM
  TGI: 76.2 µM
HT29 colon
  GI50: 26 µM
  TGI: > 100 µM
IGROV1 ovarian
  GI50: 38.6 µM
  TGI: > 100 µM
K-562 leukemia
  GI50: 8.47 µM
  TGI: > 100 µM
KM12 colon
  GI50: > 100 µM
  TGI: > 100 µM
LOX IMVI melanoma
  GI50: 16.7 µM
  TGI: 38.1 µM
M14 melanoma
  GI50: > 100 µM
  TGI: > 100 µM
MALME-3M melanoma
  GI50: 28.8 µM
  TGI: 73.2 µM
MCF7 breast
  GI50: 13.5 µM
  TGI: 90.7 µM
MDA-MB-231 breast
  GI50: 25.7 µM
  TGI: > 100 µM
MDA-MB-435 melanoma
  GI50: 36.1 µM
  TGI: > 100 µM
MDA-MB-468 breast
  GI50: 15 µM
  TGI: 42.7 µM
MOLT-4 leukemia
  GI50: 6.07 µM
  TGI: 18.1 µM
NCI-H226 lung
  GI50: 25.7 µM
  TGI: 74.6 µM
NCI-H23 lung
  GI50: 21.4 µM
  TGI: 97.9 µM
NCI-H322M lung
  GI50: 32.2 µM
  TGI: > 100 µM
NCI-H460 NSCLC
  GI50: 13.7 µM
  TGI: 32.4 µM
NCI-H522 lung
  GI50: 17 µM
  TGI: 90.5 µM
NCI/ADR-RES ovarian
  GI50: 14 µM
  TGI: 59 µM
OVCAR-3 ovarian
  GI50: 16.7 µM
  TGI: 43.5 µM
OVCAR-4 ovarian
  GI50: 30.4 µM
  TGI: > 100 µM
OVCAR-8 ovarian
  GI50: 25.2 µM
  TGI: > 100 µM
RPMI-8226 leukemia
  GI50: 4.38 µM
  TGI: 14.6 µM
RXF 393 renal
  GI50: 20.4 µM
  TGI: 95.5 µM
SF-268 CNS
  GI50: > 100 µM
  TGI: > 100 µM
SF-295 CNS
  GI50: 19.6 µM
  TGI: 96.5 µM
SF-539 CNS
  GI50: 23.9 µM
  TGI: 52.2 µM
SK-MEL-28 melanoma
  GI50: > 100 µM
  TGI: > 100 µM
SK-MEL-5 melanoma
  GI50: 13.8 µM
  TGI: 26.8 µM
SK-OV-3 ovarian
  GI50: 31.9 µM
  TGI: > 100 µM
SN12C renal
  GI50: 65 µM
  TGI: > 100 µM
SNB-19 CNS
  GI50: 32.5 µM
  TGI: > 100 µM
SNB-75 CNS
  GI50: 27.2 µM
  TGI: > 100 µM
SR leukemia
  GI50: 3.73 µM
  TGI: 8.78 µM
SW-620 colon
  GI50: > 100 µM
  TGI: > 100 µM
T-47D breast
  GI50: 19.2 µM
  TGI: > 100 µM
TK-10 renal
  GI50: 29.5 µM
  TGI: > 100 µM
U251 glioblastoma
  GI50: 23.2 µM
  TGI: > 100 µM
UACC-257 melanoma
  GI50: 26.9 µM
  TGI: 84.1 µM
UACC-62 melanoma
  GI50: > 100 µM
  TGI: > 100 µM
UO-31 renal
  GI50: 29.2 µM
  TGI: > 100 µM
